The molecules below were run against T1, Human orexin receptor type 2 (Homo sapiens, UniProt O43614) (assay: Test Example 1: agonist activity for orexin receptor type 2 (aequorin luminescence, intracellular calcium mobilization)). Conditions: compound 10 μm; CHO cells transiently expressing human orexin receptor type 2 and apoaequorin; relative percentage of luminescence for the luminescence (100%) of Orexin A (100 μM).
T1 sequence (O43614 1-444): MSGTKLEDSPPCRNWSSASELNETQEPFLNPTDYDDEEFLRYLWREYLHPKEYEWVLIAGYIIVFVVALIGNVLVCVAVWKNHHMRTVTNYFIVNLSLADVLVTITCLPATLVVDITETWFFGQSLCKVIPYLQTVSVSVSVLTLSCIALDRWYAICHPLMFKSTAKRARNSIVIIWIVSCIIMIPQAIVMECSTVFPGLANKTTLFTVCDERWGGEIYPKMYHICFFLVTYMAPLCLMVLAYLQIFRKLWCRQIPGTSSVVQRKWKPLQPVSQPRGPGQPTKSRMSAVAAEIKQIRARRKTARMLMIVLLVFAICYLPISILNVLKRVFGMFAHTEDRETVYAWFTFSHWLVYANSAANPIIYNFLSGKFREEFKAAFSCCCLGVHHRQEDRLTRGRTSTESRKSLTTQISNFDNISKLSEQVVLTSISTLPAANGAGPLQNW

Point of comparison: `Cc1ccc(C2CCN(C(=O)Nc3c(F)cccc3OC3CCN(C(C)C)CC3)CC2)cc1` [Example 62, N-(2-fluoro-6-{[1-(propan-2-yl)piperidin-4-yl]oxy}phenyl)-4-(4-methylphenyl)piperidine-1-carboxamide], “Agonist Activity (%)” value 75%. Against it:
- CCN1CCCN(c2ccccc2NC(=O)N2CCC(C)(c3noc(C4CC4)n3)CC2)CC1 [Example 156, 4-(5-cyclopropyl-1,2,4-oxadiazol-3-yl)-N-[2-(4-ethyl-1,4-diazepan-1-yl)phenyl]-4-methylpiperidine-1-carboxamide] — lower, 38%
- Cc1ccc(C2CCN(C(=O)Nc3c(N4CCN(C(C)C)CC4)cccc3C(F)(F)F)CC2)cc1 [Example 34, 4-(4-methylphenyl)-N-{2-[4-(propan-2-yl)piperazin-1-yl]-6-(trifluoromethyl)phenyl}piperidine-1-carboxamide] — higher, 161%
- Cc1ccc(C2CCN(C(=O)Nc3ccccc3N3CCN(C4CCOC4)CC3)CC2)cc1 (stereo not shown) [Example 124, 4-(4-methylphenyl)-N-{2-[4-(oxolan-3-yl)piperazin-1-yl]phenyl}piperidine-1-carboxamide] — lower, 27%
- CC(C)N1CCN(c2cccc(Cl)c2NC(=O)N2CCC(C)(c3ncc(C4CC4)s3)CC2)CC1 [Example 101, N-{2-chloro-6-[4-(propan-2-yl)piperazin-1-yl]phenyl}-4-(5-cyclopropyl-1,3-thiazol-2-yl)-4-methylpiperidine-1-carboxamide] — higher, 157%
- CC1(c2noc(C3CC3)n2)CCN(C(=O)Nc2c(Cl)cccc2C2CCN(C3COC3)CC2)CC1 [Example 146, N-{2-chloro-6-[1-(oxetan-3-yl)piperidin-4-yl]phenyl}-4-(5-cyclopropyl-1,2,4-oxadiazol-3-yl)-4-methylpiperidine-1-carboxamide] — higher, 104%
- CC(C)N1CCC(c2cccc(Cl)c2NC(=O)N2CCC(C)(c3noc(C4CC4)n3)CC2)CC1 [Example 145, N-{2-chloro-6-[1-(propan-2-yl)piperidin-4-yl]phenyl}-4-(5-cyclopropyl-1,2,4-oxadiazol-3-yl)-4-methylpiperidine-1-carboxamide] — higher, 148%
- CC(C)N1CCN(c2cccc(Cl)c2NC(=O)N2CCC(C)(c3noc(C4(C(F)(F)F)CC4)n3)CC2)CC1 [Example 107, N-{2-chloro-6-[4-(propan-2-yl)piperazin-1-yl]phenyl}-4-methyl-4-{5-[1-(trifluoromethyl)cyclopropyl]-1,2,4-oxadiazol-3-yl}piperidine-1-carboxamide] — higher, 163%
- CC(C)N1CCN(c2cccc(Cl)c2NC(=O)N2CCC(C)(c3cc(C4CC4)on3)CC2)CC1 [Example 61, N-{2-chloro-6-[4-(propan-2-yl)piperazin-1-yl]phenyl}-4-(5-cyclopropyl-1,2-oxazol-3-yl)-4-methylpiperidine-1-carboxamide] — higher, 156%
- Cc1ccc(C2CCN(C(=O)Nc3c(F)cccc3-c3cnn(C4CC4)c3)CC2)cc1 [Example 58, N-[2-(1-cyclopropyl-1H-pyrazol-4-yl)-6-fluoro-phenyl]-4-(4-methylphenyl)piperidine-1-carboxamide] — lower, 71%
- Cc1ccc(C2(C)CCN(C(=O)Nc3c(Cl)cccc3N3CCN(C(C)C)CC3)CC2)cc1 [Example 77, N-{2-chloro-6-[4-(propan-2-yl)piperazin-1-yl]phenyl}-4-methyl-4-(4-methylphenyl)piperidine-1-carboxamide] — higher, 158%
- CCC1(c2noc(C3CC3)n2)CCN(C(=O)Nc2c(Cl)cccc2N2CCN(C(C)C)CC2)CC1 [Example 89, N-{2-chloro-6-[4-(propan-2-yl)piperazin-1-yl]phenyl}-4-(5-cyclopropyl-1,2,4-oxadiazol-3-yl)-4-ethylpiperidine-1-carboxamide] — higher, 152%
- CC(C)N1CCN(c2cccc(F)c2NC(=O)N2CCC(C)(c3noc(C4CCCC4)n3)CC2)CC1 [Example 73, 4-(5-cyclopentyl-1,2,4-oxadiazol-3-yl)-N-{2-fluoro-6-[4-(propan-2-yl)piperazin-1-yl]phenyl}-4-methylpiperidine-1-carboxamide] — higher, 141%
